Experiment: TG-DTA in dry air versus argon gas (oxidative degradation)
Conditions: onset of caloric value difference between dry air and argon gas, dDTA/dT, FIG. 3(b)

temperature at which oxidation reaction occurred | Compound
about 130 °C | CC(C)C(=O)C=C([O][Zr]([O]C(=CC(=O)C(C)C)C(C)C)([O]C(=CC(=O)C(C)C)C(C)C)[O]C(=CC(=O)C(C)C)C(C)C)C(C)C [Zr(DIBM)4, zirconium tetrakis[diisobutyrylmethanate]]
about 280 °C | CC(C)(C)C(=O)C=C(O)C(C)(C)C.CC(C)(C)C(=O)C=C(O)C(C)(C)C.CC(C)(C)C(=O)C=C(O)C(C)(C)C.CC(C)(C)C(=O)C=C(O)C(C)(C)C.[Zr] [Zr(DPM)4, zirconium tetrakis[dipivaloylmethanate]]

Source: US20050147754A1, “Zirconium complex useful in a CVD method and a thin film preparation method using the complex” (Saes Getters S.p.A., priority 2002, published 2005)
